SMILES strings stand for the structures.

A short description of this assay: radiolabeling kinetics of the ligands with Bi-207 (radio-TLC). The following applies: bismuth complexation, comparison among the four ligands. The protocol: The radiolabeling kinetics of the ligands L^py, L^pyd, L^pyr, and L^pz with bismuth ions was examined using Bi-207 (t1/2=32 years) because it has a much longer half life than Bi-213. Solutions having concentrations of 1, 10, 100, and 1000 micromolar (“μM”) of each of the ligands were prepared. Each solution was combined with 3 kBq of Bi-207. The reaction temperature was ambient room temperature (21±2° C.). Aliquots of each reaction mixture were obtained during the reaction and analyzed by radio-TLC. The rates of reaction (i.e. the radiolabeling kinetics) between the bismuth ions and the ligands were dependent on the individual ligand and also on the concentration of the ligand. At a ligand concentration of 1 μM, a maximum of 50% labeling was observed after 60 minutes. At a ligand concentration of 1000 micromolar, the reaction was nearly 100% complete (i.e. 100% of the ligand was labeled with Bi-207) after 5 minutes. FIG. 3 provides a graph of the radiolabeling kinetics for the four ligands at a ligand concentration of 100 μM. […] By comparison, chelation of Bi-213 with the known ligands DOTA and CHX-DTPA requires heating to 90° C.

Consider `c1cnc(CN2CCN(Cc3cnccn3)CCN(Cc3cnccn3)CCN(Cc3cnccn3)CC2)cn1` [L^py, 1,4,7,10-Tetrakis(2-pyrazinylmethyl)-1,4,7,10-tetraazacyclododecane, reference compound], for which the “complexation kinetics (relative)” value is on record as “slowest”.

(Values after patent US10450336B2 (Los Alamos National Security, LLC, priority 2014, dated 2019).)
